Source: patent US20050171151A1, “Methods of treating hyperlipidemia” (Allergan, Inc., priority 2001, published 2005)
Where “and” joins values, the source holds several entries; their conditions need not be identical. Equal entries are not always repeated. Entries after “also recorded” stand apart in the source; their conditions may differ. Where two headings read alike, the source gives them in different places.

How the values were obtained:
[1] = system: hepatic triglyceride output; assay: Hepatic triglyceride (HTG) output: increase of STG after WR-1339 in fasted male SJL mice; format: in vivo; settings: for Serum triglycerides, Day 4 post-WR-1339 1 hr (3 p.m.), group mean / Serum triglycerides, Day 4 post-WR-1339 2 hr (4 p.m.), group mean / Serum triglycerides, Day 4 post-WR-1339 1 hr (3 p.m.) / Serum triglycerides, Day 4 post-WR-1339 2 hr (4 p.m.): fasted; for Effect on HTG output after WR-1339 injection: 20 mg/kg orally for 4 days
Procedure: (§1) On day 4, animals were fasted after dosing, starting at 8 a.m. Following 6 hours of fasting, blood samples were collected prior to intravenous injection of WR-1339 at 100 mg/5 ml/kg. Additional serum samples were collected at 1 and 2 hours after WR-1339 injection. WR-1339 is a detergent which inactivates lipoprotein lipase and thus prevents the removal of triglycerides from circulation. By measuring the increase of STG after WR-1339 administration in fasted animals, one can estimate the hepatic triglyceride (HTG) output during fasting.
(§2) Due to the lack of effect of AGN 197116 at 20 mg/kg, the dose was increased to 100 mg/kg in the same set of mice. STG was determined on day 3 prior to dosing (Day 3, 8 a.m.). […] To ensure that AGN 197116 would be bioavailable, AGN 197116 was dissolved in DMSO and given by intraperitoneal injections, once at 4 p.m. on day 3 and once at 8 a.m. on day 4, at a dosage of 100 mg/kg/injection. Administration of WR-1339 and blood collections on day 4 were similarly conducted as described above.

[2] = system: serum lipids (triglyceride, cholesterol, LDL, HDL); settings: for Triglyceride level after treatment: with diet and exercise
[3] = system: serum triglycerides; assay: Serum triglycerides (STG) in male SJL mice; format: in vivo; settings: for Serum triglycerides, Day 4 0 hr (2 pm), group mean / Serum triglycerides, Day 3 8 a.m., group mean / Serum triglycerides, Day 4 0 hr (2 pm): 20 mg/kg oral gavage daily; for Serum triglycerides, Day 3 8 a.m., group mean / Serum triglycerides, Day 3 8 a.m.: non-fasting; for Serum triglycerides, Day 3 8 a.m. / Serum triglycerides, Day 4 0 hr (2 pm): individual male SJL mice, 20 mg/kg; for Serum triglycerides, Day 3 8 a.m.: 20 mg/kg oral gavage daily in corn oil; for Effect on non-fasting STG: Day 3, 8 a.m.
Procedure: Male SJL mice were dosed orally with vehicle, AGN 197116 (RARα antagonist) or AGN 194310 (RAR pan-antagonist) for 4 consecutive days. The structure of AGN 194310 is described herein below. The structure of AGN 197116 is: [drawing 16]
The test compounds were dissolved in corn oil and given at a dosage/volume of 20 mg/5 ml/kg. […]
as §1, §2

[4] = Stability to light; format: physicochemical
[5] = cynomolgus monkey, in vivo
Procedure: Five male cynomologus monkeys were employed in Study PT-99-10. Three of the five monkeys were treated with AGN 194310 at a daily dosage of 1.25 mg/kg (orally) for a period of 25 days. […] Its structure is described herein below. The remaining two were similarly treated with a vehicle to serve as control. Serum samples were collected on days 1, 8, 15, 22 and 25 for triglyceride determination. Serum samples from days 8, 15, 22 and 25 were also assayed for the concentration of AGN 194310.

[6] = system: serum triglycerides; assay: Serum triglycerides in cynomolgus monkeys treated orally (Study PT-99-10); format: in vivo
Procedure: Five male cynomologus monkeys were employed in Study PT-99-10. […] Its structure is described herein below. The remaining two were similarly treated with a vehicle to serve as control. Serum samples were collected on days 1, 8, 15, 22 and 25 for triglyceride determination. Serum samples from days 8, 15, 22 and 25 were also assayed for the concentration of AGN 194310.

[7] = Clinical observation, body weight and food consumption of treated monkeys; format: in vivo, cynomolgus monkeys
Excerpt: AGN 194310 is an RAR antagonist or inverse agonist. Its structure is described herein below.

[8] = male SJL mice, 20 mg/kg oral gavage daily, 1 hr after 100 mg/kg tyloxapol IV
[9] = male SJL mice, 20 mg/kg oral gavage daily, 2 hr after 100 mg/kg tyloxapol IV
[10] = individual male SJL mice, 20 mg/kg oral gavage daily, 1 hr after 100 mg/kg tyloxapol IV
[11] = individual male SJL mice, 20 mg/kg oral gavage daily, 2 hr after 100 mg/kg tyloxapol IV
[12] = group mean, male SJL mice, after 6 hours fasting, before WR-1339
[13] = after 6 hours fasting, before WR-1339

Compound: CCc1ccc(C2=CC(C)(C)Sc3ccc(C#Cc4ccc(C(=O)O)cc4)cc32)cc1 [AGN 194310, 4-[[4-(4-ethylphenyl)-2,2-dimethyl-(2H)-thiochromen-6-yl]-ethynyl]-benzoic acid]
- Serum triglycerides, Day 4 post-WR-1339 1 hr (3 p.m.), group mean [1, 8]: 266.3
- Serum triglycerides, Day 4 post-WR-1339 2 hr (4 p.m.), group mean [1, 9]: 485.6
- Serum triglycerides, Day 4 post-WR-1339 1 hr (3 p.m.) [1, 10]: 216.8 and 307.2 and 294.9 and 311.7 and 238.7 and 303.9 and 260 and 252.3 and 210.9
- Serum triglycerides, Day 4 post-WR-1339 2 hr (4 p.m.) [1, 11]: 328.5 and 548 and 562.9 and 577.1 and 493.8 and 508 and 550 and 542.9 and 259.1
- Effect on HTG output after WR-1339 injection ([1]; male SJL mice): reduction of HTG output
- Triglyceride level after treatment ([2]; Example 1, person, tablet 20 mg daily, 3 months, initial 440 mg/dL): 280 mg/dL
- Triglyceride level after treatment ([2]; Example 2, person, tablet 50 mg twice daily, initial 950 mg/dL): 450 mg/dL
- Side effects ([2]; human, in vivo): no side effects
- Tolerability ([2]; human, in vivo): tolerates the medication well
- Serum triglycerides, Day 4 0 hr (2 pm), group mean [3, 12]: 71.5
- Serum triglycerides, Day 3 8 a.m., group mean ([3]; group mean, male SJL mice): 92.7
- Serum triglycerides, Day 3 8 a.m. [3]: 71.2 and 105.7 and 67.9 and 113.2 and 134.8 and 76.6 and 63.1 and 84.1 and 95.6 and 115.2
- Serum triglycerides, Day 4 0 hr (2 pm) [3, 13]: 76.6 and 76 (2×) and 57.3 and 74.7 and 80.5 and 71.5 and 73.4 and 61.1 and 67.6
- Effect on non-fasting STG ([3]; male SJL mice, 20 mg/kg orally): appeared to lower
- Effect on fasting STG ([3]; male SJL mice, 20 mg/kg orally, Day 4, 2 p.m.): but not fasting STG
- Stability to normal light [4]: relatively stable to normal light
- Oral absorption [5]: well absorbed
- Serum triglycerides, Day 1 ([6]; individual male cynomolgus monkeys, by gastric intubation daily, Day 1 (baseline)): 48.8 mg/dL and 52.5 mg/dL and 58.5 mg/dL
- Serum triglycerides, Day 8 ([6]; individual male cynomolgus monkeys, by gastric intubation daily, Day 8): 24.3 mg/dL and 21.6 mg/dL and 19.2 mg/dL
- Serum triglycerides, Day 15 ([6]; individual male cynomolgus monkeys, by gastric intubation daily, Day 15): 18.2 mg/dL and 30.7 mg/dL and 29.6 mg/dL
- Serum triglycerides, Day 22 ([6]; individual male cynomolgus monkeys, by gastric intubation daily, Day 22): 30.4 mg/dL and 20.6 mg/dL and 36.5 mg/dL
- Serum triglycerides, Day 25 ([6]; individual male cynomolgus monkeys, by gastric intubation daily, Day 25): 20.3 mg/dL and 23.4 mg/dL and 28.3 mg/dL
- Serum triglycerides, Day 1, group mean ([6]; mean of 3 monkeys, by gastric intubation, Day 1 (baseline)): 53.3 mg/dL
- Serum triglycerides, Day 8, group mean ([6]; mean of 3 monkeys, by gastric intubation, Day 8): 21.7 mg/dL
- Serum triglycerides, Day 15, group mean ([6]; mean of 3 monkeys, by gastric intubation, Day 15): 26.2 mg/dL
- Serum triglycerides, Day 22, group mean ([6]; mean of 3 monkeys, by gastric intubation, Day 22): 29.2 mg/dL
- Serum triglycerides, Day 25, group mean ([6]; mean of 3 monkeys, by gastric intubation, Day 25): 24.0 mg/dL
- Effect on serum triglycerides ([6]; monkeys, daily dose 1.25 mg/kg orally, 1.25 mg/kg): highly significant decrease of serum triglycerides; also recorded: lowers serum triglycerides
- Average decrease of serum triglycerides compared to day 1 (baseline) ([6]; per treated monkey, 1.25 mg/kg orally daily for 25 days, control monkeys increased 48% and 89%, 1.25 mg/kg): 52% and 54% and 51%
- Body weight and rate of food consumption ([7]; 1.25 mg/kg orally daily, throughout the 25 day study): no change in body weight or rate of food consumption
- Abnormal clinical signs ([7]; daily dose 1.25 mg/kg orally, 25 days): without any noticeable abnormal clinical signs

Compound: Cc1ccc(C2=CCC(C)(C)c3cc(O)c(C(=O)Nc4ccc(C(=O)O)c(F)c4)cc32)cc1 [AGN 197116]
- Effect on HTG output ([1]; SJL mice, intraperitoneal injection 100 mg/kg/injection): reduced
- Serum triglycerides, Day 4 post-WR-1339 1 hr (3 p.m.), group mean ([1]; SJL mice, 100 mg/kg oral then I.P., 1 hr after WR-1339): 222
- Serum triglycerides, Day 4 post-WR-1339 2 hr (4 p.m.), group mean ([1]; SJL mice, 100 mg/kg oral then I.P., 2 hr after WR-1339): 345
- Serum triglycerides, Day 4 post-WR-1339 1 hr (3 p.m.), group mean [1, 8]: 334.2
- Serum triglycerides, Day 4 post-WR-1339 2 hr (4 p.m.), group mean [1, 9]: 646.8
- Serum triglycerides, Day 4 post-WR-1339 1 hr (3 p.m.) ([1]; individual SJL mice, Day 1-3 100 mg/kg oral, Day 3-4 100 mg/kg I.P., 1 hr after WR-1339, 100 mg/kg): 220 and 195 and 248 and 345 and 126 and 197
- Serum triglycerides, Day 4 post-WR-1339 2 hr (4 p.m.) ([1]; individual SJL mice, Day 1-3 100 mg/kg oral, Day 3-4 100 mg/kg I.P., 2 hr after WR-1339, 100 mg/kg): 285 and 272 and 396 and 531 and 200 and 387
- Serum triglycerides, Day 4 post-WR-1339 1 hr (3 p.m.) [1, 10]: 360.1 and 380.1 and 464.1 and 241.9 and 331.7 and 329.8 and 262.6 and 311 and 326.5
- Serum triglycerides, Day 4 post-WR-1339 2 hr (4 p.m.) [1, 11]: 726.9 and 723.7 and 770.2 and 590 and 575.2 and 700.4 and 462.8 and 659.1 and 612.6
- Effect on HTG output after WR-1339 injection ([1]; male SJL mice): not observed
- Effect on STG ([3]; SJL mice, 100 mg/kg orally, Day 3, 8 a.m. prior to dosing): no lowering of STG was observed
- Effect on STG ([3]; SJL mice, 16 hours after a single intraperitoneal 100 mg/kg dose in DMSO (Day 4, 8 a.m.)): clear lowering of STG
- Effect on fasting STG ([3]; SJL mice, intraperitoneal 100 mg/kg/injection, after fasting (Day 4, 2 p.m.)): this effect disappeared after fasting
- Serum triglycerides, Day 4 post-WR-1339 0 hr (2 pm), group mean ([3]; group mean, SJL mice, 100 mg/kg oral then I.P., after 6 hours fasting, before WR-1339): 50
- Serum triglycerides, Day 4 0 hr (8 am), group mean ([3]; group mean, SJL mice, 16 hours after a single 100 mg/kg I.P. dose): 79
- Serum triglycerides, Day 3 0 Hour, group mean ([3]; group mean, SJL mice, Day 1-3 100 mg/kg oral, Day 3 prior to dosing): 118
- Serum triglycerides, Day 4 0 hr (2 pm), group mean [3, 12]: 72.4
- Serum triglycerides, Day 3 8 a.m., group mean ([3]; group mean, male SJL mice): 123.0
- Serum triglycerides, Day 4 0 hr (8 am) ([3]; individual SJL mice, 16 hours after a single 100 mg/kg I.P. dose (after Day 1-3 100 mg/kg oral), 100 mg/kg): 58 and 79 and 51 and 114 and 50 and 125
- Serum triglycerides, Day 4 post-WR-1339 0 hr (2 pm) ([3]; individual SJL mice, Day 1-3 100 mg/kg oral, Day 3-4 100 mg/kg I.P., after 6 hours fasting, before WR-1339, 100 mg/kg): 42 mg/dL (2×) and 36 mg/dL and 73 mg/dL and 59 mg/dL and 50 mg/dL
- Serum triglycerides, Day 3 0 Hour ([3]; individual SJL mice, Day 1-3 100 mg/kg oral, Day 3 prior to dosing, 100 mg/kg): 81 and 104 and 103 and 139 and 107 and 171
- Serum triglycerides, Day 3 8 a.m. [3]: 128.7 and 124 and 150.3 and 110.5 and 118.6 and 124.7 and 112.5 and 106.4 and 131.4
- Serum triglycerides, Day 4 0 hr (2 pm) [3, 13]: 63.1 and 91.7 and 43 and 72.1 and 90.8 and 76 and 68.2 and 73.4 (2×)
- Effect on non-fasting STG ([3]; male SJL mice, 20 mg/kg orally): not observed
